Measured values reported in patent US6737383B1, “Herbicidal oxadiazolidines” (priority 1999, dated 2004).

Key:
[1] = test system: cocklebur; experiment: Test B pre/postemergence cocklebur; format: in vivo, Xanthium strumarium
Procedure, shortened: (§1)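 Test chemicals in a non-phytotoxic solvent mixture with surfactant were sprayed preemergence onto planted seeds and postemergence onto plants 2 to 18 cm tall (1- to 4-leaf stage). After twelve to sixteen days in a greenhouse, injury was visually rated against untreated controls from 0 (no effect) to 10 (complete control).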

[2] = test system: giant foxtail; experiment: Test B pre/postemergence giant foxtail; format: in vivo, Setaria faberii
Procedure, shortened: as §1

[3] = test system: surinam grass; experiment: Test B pre/postemergence surinam grass; format: in vivo, Brachiaria decumbens
Procedure, shortened: as §1

[4] = test system: duck salad; experiment: Test B flood test duck salad; format: in vivo, Heteranthera limosa
Procedure, shortened: (§2)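 Read-out is a visual response score from 0 (no effect) to 10 (complete control), assigned by comparison with untreated controls. Treatment was applied at the 2-leaf stage, and plants stayed in the greenhouse for twelve to sixteen days before scoring.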

[5] = test system: smallflower flatsedge; experiment: Test B flood test smallflower flatsedge; format: in vivo, Cyperus difformis
Procedure, shortened: as §2

[6] = test system: morningglory; experiment: Test B pre/postemergence morningglory; format: in vivo, Ipomoea hederacea; conditions: for Plant response rating, Morningglory: scale of 0 to 10 where 0 is no effect and 10 is complete control
Procedure, shortened: as §1

[7] = test system: blackgrass; experiment: Test B pre/postemergence blackgrass; format: in vivo, Alopecurus myosuroides
Procedure, shortened: as §1

[8] = test system: velvetleaf; experiment: Test B pre/postemergence velvetleaf; format: in vivo, Abutilon theophrasti; conditions: for Plant response rating, Velvetleaf: scale of 0 to 10 where 0 is no effect and 10 is complete control
Procedure, shortened: as §1

[9] = test system: purple nutsedge; experiment: Test B pre/postemergence purple nutsedge; format: in vivo, Cyperus rotundus; conditions: for Plant response rating, Nutsedge: scale of 0 to 10 where 0 is no effect and 10 is complete control
Procedure, shortened: as §1

[10] = test system: soybean; experiment: Test B pre/postemergence soybean; format: in vivo, Glycine max; conditions: for Plant response rating, Soybean: scale of 0 to 10 where 0 is no effect and 10 is complete control
Procedure, shortened: as §1

[11] = test system: bamyardgrass; experiment: Test B flood test barnyardgrass; format: in vivo, Echinochloa crus-galli
Procedure, shortened: as §2

[12] = test system: rape; experiment: Test B pre/postemergence rape; format: in vivo, Brassica napus; conditions: for Plant response rating, Rape: scale of 0 to 10 where 0 is no effect and 10 is complete control
Procedure, shortened: as §1

[13] = test system: wild oat; experiment: Test B pre/postemergence wild oat; format: in vivo, Avena fatua; conditions: for Plant response rating, Wild oats: scale of 0 to 10 where 0 is no effect and 10 is complete control
Procedure, shortened: as §1

[14] = test system: pigweed; experiment: Test B pre/postemergence pigweed; format: in vivo, Amaranthus retroflexus; conditions: for Plant response rating, Redroot pigweed: scale of 0 to 10 where 0 is no effect and 10 is complete control
Procedure, shortened: as §1

[15] = test system: wheat; experiment: Test B pre/postemergence wheat; format: in vivo, Triticum aestivum; conditions: for Plant response rating, Wheat: scale of 0 to 10 where 0 is no effect and 10 is complete control
Procedure, shortened: as §1

[16] = Postemergence, Rate 250 g/ha, scale 0 to 10
[17] = Postemergence, Rate 500 g/ha, scale of 0 to 10 where 0 is no effect and 10 is complete control
[18] = Preemergence, Rate 62 g/ha, scale of 0 to 10 where 0 is no effect and 10 is complete control
[19] = Preemergence, Rate 125 g/ha, scale of 0 to 10 where 0 is no effect and 10 is complete control
[20] = Preemergence, Rate 250 g/ha, scale 0 to 10, 0 is no effect, 10 is complete control
[21] = Preemergence, Rate 500 g/ha, scale 0 to 10, 0 is no effect, 10 is complete control
[22] = Rate 62 g/ha, Postemergence, scale 0 to 10, 0 no effect, 10 complete control
[23] = Rate 125 g/ha, Postemergence, scale 0 to 10, 0 is no effect, 10 is complete control
[24] = Rate 62 g/ha, flood test species, Pre-emergence, visual evaluation after twelve to sixteen days
[25] = Rate 125 g/ha, under heading Pre-emergence, flood test species, visual evaluation after twelve to sixteen days
[26] = Rate 250 g/ha, Pre-emergence (flood test species), scale 0 to 10, 0 is no effect, 10 is complete control
[27] = Rate 500 g/ha, Pre-emergence, flood test species, scale 0 to 10 (0 no effect, 10 complete control)

C=CC(OC)n1c(=O)on(C(=O)N(c2ccc(F)cc2)C(C)C)c1=O (stereo not shown) [Compound 452]
Cocklebur plant response rating [1, 16]: 0 | Cocklebur plant response rating [1, 17]: 0 | Plant response rating, Cocklebur [1, 18]: 0 | Plant response rating, Cocklebur [1, 19]: 0 | Cocklebur plant response rating [1, 20]: 0 | Cocklebur plant response rating [1, 21]: 0 | Cocklebur plant response rating [1, 22]: 0 | Cocklebur plant response rating [1, 23]: 0 | Giant foxtail plant response rating [2, 16]: 7 | Giant foxtail plant response rating [2, 17]: 7 | Plant response rating, Giant foxtail [2, 18]: 2 | Plant response rating, Giant foxtail [2, 19]: 3 | Giant foxtail plant response rating [2, 20]: 4 | Giant foxtail plant response rating [2, 21]: 7 | Giant foxtail plant response rating [2, 22]: 2 | Giant foxtail plant response rating [2, 23]: 4 | B. signalgrass plant response rating ([3]; Postemergence, Rate 250 g/ha, scale 0 to 10, 0 no effect, 10 complete control): 0 | B. signalgrass plant response rating [3, 17]: 0 | Plant response rating, B. signalgrass [3, 18]: 0 | Plant response rating, B. signalgrass [3, 19]: 0 | B. signalgrass plant response rating [3, 20]: 0 | B. signalgrass plant response rating [3, 21]: 0 | B. signalgrass plant response rating [3, 22]: 0 | B. signalgrass plant response rating [3, 23]: 0 | Plant response rating, Ducksalad (0 to 10 scale, 0 is no effect, 10 is complete control) [4, 24]: 0 | Ducksalad plant response rating (0 to 10 scale, 0 is no effect, 10 is complete control) [4, 25]: 0 | Ducksalad plant response rating [4, 26]: 0 | Ducksalad plant response rating [4, 27]: 0 | Plant response rating, S. Flatsedge (0 to 10 scale, 0 is no effect, 10 is complete control) [5, 24]: 0 | S. Flatsedge plant response rating (0 to 10 scale, 0 is no effect, 10 is complete control) [5, 25]: 0 | S. Flatsedge plant response rating [5, 26]: 0 | S. Flatsedge plant response rating [5, 27]: 0 | Morningglory plant response rating [6, 16]: 2 | Plant response rating, Morningglory ([6]; Preemergence, Rate 62 g/ha): 0 | Plant response rating, Morningglory ([6]; Preemergence, Rate 125 g/ha): 0 | Morningglory plant response rating [6, 20]: 0 | Morningglory plant response rating [6, 21]: 0 | Morningglory plant response rating [6, 22]: 1 | Morningglory plant response rating [6, 23]: 2 | Blackgrass plant response rating [7, 16]: 3 | Blackgrass plant response rating [7, 17]: 5 | Plant response rating, Blackgrass [7, 18]: 0 | Plant response rating, Blackgrass [7, 19]: 0 | Blackgrass plant response rating [7, 20]: 2 | Blackgrass plant response rating [7, 21]: 2 | Blackgrass plant response rating [7, 22]: 0 | Blackgrass plant response rating [7, 23]: 0 | Velvetleaf plant response rating [8, 16]: 0 | Plant response rating, Velvetleaf ([8]; Preemergence, Rate 62 g/ha): 0 | Plant response rating, Velvetleaf ([8]; Preemergence, Rate 125 g/ha): 0 | Velvetleaf plant response rating [8, 20]: 0 | Velvetleaf plant response rating [8, 21]: 0 | Velvetleaf plant response rating [8, 22]: 0 | Velvetleaf plant response rating [8, 23]: 0 | Nutsedge plant response rating [9, 16]: 0 | Plant response rating, Nutsedge ([9]; Preemergence, Rate 62 g/ha): 0 | Plant response rating, Nutsedge ([9]; Preemergence, Rate 125 g/ha): 0 | Nutsedge plant response rating [9, 20]: 0 | Nutsedge plant response rating [9, 21]: 0 | Nutsedge plant response rating [9, 22]: 0 | Nutsedge plant response rating [9, 23]: 0 | Soybean plant response rating [10, 16]: 1 | Plant response rating, Soybean ([10]; Preemergence, Rate 62 g/ha): 0 | Plant response rating, Soybean ([10]; Preemergence, Rate 125 g/ha): 0 | Soybean plant response rating [10, 20]: 0 | Soybean plant response rating [10, 21]: 0 | Soybean plant response rating [10, 22]: 1 | Soybean plant response rating [10, 23]: 1 | Plant response rating, Barnyardgrass (0 to 10 scale, 0 is no effect, 10 is complete control) [11, 24]: 0 | Barnyardgrass plant response rating (0 to 10 scale, 0 is no effect, 10 is complete control) [11, 25]: 0 | Barnyardgrass plant response rating [11, 26]: 0 | Barnyardgrass plant response rating [11, 27]: 0 | Rape plant response rating [12, 16]: 0 | Plant response rating, Rape ([12]; Preemergence, Rate 62 g/ha): 0 | Plant response rating, Rape ([12]; Preemergence, Rate 125 g/ha): 0 | Rape plant response rating [12, 20]: 0 | Rape plant response rating [12, 21]: 0 | Rape plant response rating [12, 22]: 0 | Rape plant response rating [12, 23]: 0 | Wild oats plant response rating [13, 16]: 0 | Plant response rating, Wild oats ([13]; Preemergence, Rate 62 g/ha): 0 | Plant response rating, Wild oats ([13]; Preemergence, Rate 125 g/ha): 0 | Wild oats plant response rating [13, 20]: 0 | Wild oats plant response rating [13, 21]: 0 | Wild oats plant response rating [13, 22]: 0 | Wild oats plant response rating [13, 23]: 0 | Redroot pigweed plant response rating [14, 16]: 0 | Plant response rating, Redroot pigweed ([14]; Preemergence, Rate 62 g/ha): 0 | Plant response rating, Redroot pigweed ([14]; Preemergence, Rate 125 g/ha): 0 | Redroot pigweed plant response rating [14, 20]: 0 | Redroot pigweed plant response rating [14, 21]: 0 | Redroot pigweed plant response rating [14, 22]: 0 | Redroot pigweed plant response rating [14, 23]: 0 | Wheat plant response rating [15, 16]: 0 | Plant response rating, Wheat ([15]; Preemergence, Rate 62 g/ha): 0 | Plant response rating, Wheat ([15]; Preemergence, Rate 125 g/ha): 0 | Wheat plant response rating [15, 20]: 0 | Wheat plant response rating [15, 21]: 0 | Wheat plant response rating [15, 22]: 0 | Wheat plant response rating [15, 23]: 0
